Reference: PMC11456916, “A screen for cell envelope stress uncovers an inhibitor of prolipoprotein diacylglyceryl transferase, Lgt, in Escherichiacoli” (iScience, 2024)
Where two headings read alike, the source gives them in different places.

Columns and labels:
E. coli ΔtolC = assay: MIC assay, E. coli ΔtolC; type: cell-based; conditions: growth inhibition, in words
Experimental: (§1) For MIC assays, cultures of bacteria were grown in LB broth. Overnight cultures were diluted (1:100) into fresh LB media and grown to the mid-log phase of growth (OD600 ∼0.5). Subcultures were then normalized to an OD600 of 0.1, and diluted (1:5000) into assay media. Assay plates were then incubated for 18 h at 37°C, then OD600 was measured using a Biotek Neo plate reader.

A. baumannii ATCC17978 = assay: MIC assay with or without SPR741, A. baumannii; type: cell-based, Acinetobacter baumannii; conditions: for MIC: Acinetobacter baumannii
Experimental: (§2) We next sought to determine whether we could achieve growth inhibition of wild-type E. coli using MAC-0452936 and an antibiotic adjuvant. […] To that end, we determined the MIC of MAC-0452936 against wild-type E. coli in the presence and absence of a sub-MIC concentration of SPR741 (Figure S8B). […] We leveraged this combination to characterize the spectrum of activity of MAC-0452936 against a panel of Gram-negative pathogens (Table 2). In the presence of 8 μg/mL SPR741, we observed MAC-0452936 activity against the clinical E. coli isolates C0244 and CFT073 at 2 μg/mL as well as against Salmonella Typhimurium SL1344 at 4 μg/mL.
as §1

P. aeruginosa PA01 = assay: MIC assay with or without SPR741, P. aeruginosa; type: cell-based, Pseudomonas aeruginosa; conditions: for MIC: Pseudomonas aeruginosa
Experimental: as §2, §1

S. aureus MRSA JE2 = assay: MIC assay with or without SPR741, S. aureus; type: cell-based, Staphylococcus aureus; conditions: for MIC: Staphylococcus aureus, MRSA
Experimental: as §2, §1

K. aerogenes CO045 = assay: MIC assay with or without SPR741, K. aerogenes; type: cell-based, Klebsiella aerogenes; conditions: for MIC: Klebsiella aerogenes
Experimental: as §2, §1

E. coli ΔtolC-pore Δlpp = assay: MIC in lpp deletion background; type: cell-based; conditions: E. coli ΔtolC-pore Δlpp versus E. coli ΔtolC-pore
From the text: We next turned to genetic approaches to confirm the mechanism of action of MAC-0452936. […] To that end, we screened the E. coli CRISPRi collection in the ΔtolC-pore genetic background with a sub-inhibitory concentration of MAC-0452936 and measured the fitness of all 356 CRISPRi mutants (Figure 4C and Data S4). […] Depletion of Lgt by CRISPRi provided supporting evidence that MAC-0452936 targeted Lgt in E. coli; however, we sought to confirm this observation using a parallel genetic approach. We hypothesized that MAC-0452936 potency would also be affected by high-copy expression of lgt. To that end, we introduced either an arabinose inducible copy of lgt supplied on the pCHAP9231 plasmid[48] or the pBAD19s plasmid as a control into E. coli ΔtolC-pore and tested the potency of MAC-0452936 (Figure 4E). Induction of lgt expression with arabinose suppressed the activity of MAC-0452936 by about 8-fold. […] To test this hypothesis, we constructed E. coli ΔlgtΔtolC-pore with pCHAP9231[48] so that lgt expression was driven solely by arabinose from the plasmid. […] To test this observation with MAC-0452936, we introduced an lpp deletion into our screening strain E. coli ΔtolC-pore and assessed the activity of our Lgt inhibitor in this mutant background. […]

human red blood cells = assay: Haemolysis assay; type: cell-based; conditions: 37°C, 1 h
Experimental: (§3) To determine the haemolytic activity and cytotoxicity of MAC-0452936, pooled human blood and HEK293t cells were used, respectively. Fresh pooled human blood for haemolytic assay was acquired from […] Technologies, whilst, HEK293t cells were originally acquired from ATCC (Cat# CRL-3216) and were regularly grown in […] (DMEM) with 10% fetal bovine serum (FBS), L-glutamine and incubated at 37°C. Cell lines are regularly tested for mycoplasma contamination.
Haemolytic activity of MAC-0452936 was assessed as described previously. Fresh human blood (10 mL, Stem Cell Technologies, USA) was centrifuged at 4,000 rpm for 10 min. The supernatant was discarded, and the pellet was rinsed three times with 1× PBS. Subsequently, the pellet was diluted 1:5 (v/v) in 1× PBS and RBC suspensions (0.5 mL each) were incubated with varying concentrations of test compounds at 37°C for 1 h. Following this, the cell suspensions were centrifuged at 5,000g for 10 min and the supernatant was meticulously collected without disturbing the pellet. Hemolysis was assessed by measuring the absorbance of the released hemoglobin in the supernatant at 540 nm using a spectrophotometer. Triton X-100 (0.1%) was used as the positive control causing 100 per cent hemolysis. All experiments were performed in triplicates.

K. pneumoniae MKP103 = assay: MIC assay with or without SPR741, K. pneumoniae; type: cell-based, Klebsiella pneumoniae; conditions: for MIC: Klebsiella pneumoniae
Experimental: as §2, §1

HEK293t cells = assay: In vitro cytotoxicity (PrestoBlue cell viability); type: cell-based, human; conditions: 24 h
Experimental: as §3
The cytotoxicity of MAC-0452936 on HEK293t cells was determined by performing a cell viability assay using PrestoBlue Cell Viability Reagent (Invitrogen). 3 × 10^4 cells/mL were seeded in tissue culture-treated 96-well plates (Nunc; white opaque with clear bottom) in […] (DMEM) with 10% fetal bovine serum (FBS), L-glutamine and incubated at 37°C for 24 h in 5% CO2. The cells were then treated with varying concentrations of MAC-0452936 and similar percentage of DMSO as in drug (solvent control) for 24 h at 37°C. PrestoBlue reagent (20 μL) was added to the wells and incubated for 1 h in the CO2 incubator before reading the plates at excitation/emission wavelength of 560/590 nm on the Biotek Synergy Neo2 plate reader. Fluorescence values were expressed as percentage and inhibition with respect to solvent control was calculated.

COc1ccc(C(=O)O/N=C(\c2cccs2)C(C)(C)C)cc1 [MAC-0452936, (Z)-2-Pivaloylthiophene O-(4-methoxybenzoyl) oxime]
activity against E. coli ΔtolC (E. coli ΔtolC): active | MIC, A. baumannii ATCC17978 + 8 μg/mL SPR741 (A. baumannii ATCC17978; 8 μg/mL SPR741): did not observe MAC-0452936 activity | MIC (A. baumannii ATCC17978; ATCC17978, read-out: MIC, A. baumannii ATCC17978 + 8 μg/mL SPR741): > 64 µg/mL | MIC (A. baumannii ATCC17978; ATCC17978, read-out: MIC, A. baumannii ATCC17978 + 0 μg/mL SPR741): > 64 µg/mL | MIC, P. aeruginosa PA01 + 8 μg/mL SPR741 (P. aeruginosa PA01; 8 μg/mL SPR741): did not observe MAC-0452936 activity | MIC (P. aeruginosa PA01; PA01, read-out: MIC, P. aeruginosa PA01 + 8 μg/mL SPR741): > 64 µg/mL | MIC (P. aeruginosa PA01; PA01, read-out: MIC, P. aeruginosa PA01 + 0 μg/mL SPR741): > 64 µg/mL | MIC, S. aureus MRSA JE2 + 8 μg/mL SPR741 (S. aureus MRSA JE2; 8 μg/mL SPR741): did not observe MAC-0452936 activity | MIC (S. aureus MRSA JE2; read-out: MIC, S. aureus MRSA JE2 + 0 μg/mL SPR741): > 64 µg/mL | MIC (S. aureus MRSA JE2; read-out: MIC, S. aureus MRSA JE2 + 8 μg/mL SPR741): > 64 µg/mL | MIC, K. aerogenes CO045 + 8 μg/mL SPR741 (K. aerogenes CO045; 8 μg/mL SPR741): did not observe MAC-0452936 activity | MIC (K. aerogenes CO045; CO045, read-out: MIC, K. aerogenes CO045 + 8 μg/mL SPR741): > 64 µg/mL | MIC (K. aerogenes CO045; CO045, read-out: MIC, K. aerogenes CO045 + 0 μg/mL SPR741): > 64 µg/mL | sensitization by deletion of lpp (E. coli ΔtolC-pore Δlpp): 2 fold | hemolysis of human red blood cells (human red blood cells): did not observe hemolysis | MIC, K. pneumoniae MKP103 + 8 μg/mL SPR741 (K. pneumoniae MKP103; 8 μg/mL SPR741): did not observe MAC-0452936 activity | MIC (K. pneumoniae MKP103; MKP103, read-out: MIC, K. pneumoniae MKP103 + 0 μg/mL SPR741): > 64 µg/mL | MIC (K. pneumoniae MKP103; MKP103, read-out: MIC, K. pneumoniae MKP103 + 8 μg/mL SPR741): > 64 µg/mL | concentrations giving a modest decrease in the viability of HEK-293 cells (HEK293t cells): greater than 8 μg/mL | cytotoxicity to HEK-293 cells (HEK293t cells; at MIC concentrations): did not observe
